Patent US20200255487A1, “A Cell-Based Seeding Assay for Huntingtin Aggregation” (THE REGENTS OF THE UNIVERSITY OF CALIFORNIA, priority 2017, published 2020)

System: HTT-ΔN17-46Q-GFP
Test: cell-based HTT seeding assay (ΔN17-1E cells)
Set-up: species or system human
Conditions: for induction of intracellular HTT-ΔN17-46Q-GFP aggregation by extracellularly applied seeds: ΔN17-1E (HEK293) cells, substance applied as seed, FIG. 4
Text: Described herein is the development of a cell-based HTT seeding assay. A DNA construct encoding Exon1 of mutant human HTT with a 46 polyQ repeat was designed (FIG. 1C). This mutant HTT was engineered to delete amino acid residues 2-16 and was fused with a green fluorescent protein (GFP) at its C-terminus, named HTT-ΔN17-46Q-GFP hereafter. The HTT-ΔN17-46Q-GFP was then cloned into a pcDNA3 vector and transfected into HEK293 cells. Clones of stably transfected cells expressing HTT-ΔN17-46Q-GFP were selected to generate individual cell lines. Expression of the transgene in the cell lines was characterized to confirm its morphology, expression level and subcellular localization. Line 1E, named ΔN17-1E cells, was selected based on it moderate transgene expression with minimal protein aggregates at the baseline. Based on this cell line, a cell-based HTT seeding assay was developed. Extracellular application of preformed HTT aggregates or biosamples from HD patients as “seeds”, to ΔN17-1E cells could induce intracellular aggregation of HTT-ΔN17-46Q-GFP proteins (FIG. 1 through FIG. 3). This seeding-induced aggregation event is similar to in vitro HTT aggregation, which preformed aggregates, or seeds, nucleates and facilitates the aggregation of HTT exon 1 monomers. Moreover, this activity is specific to utilizing aggregates of polyQ proteins since neither aggregates of β-amyloid and Tau nor biosamples from AD and PD patients could elicit HTT-ΔN17-46Q-GFP aggregation (FIG. 4). The level of induced aggregates positively correlates with the amount of recombinant seeds added. Importantly, the seedability of the biosamples also correlates with the disease stage of the patients. Currently, the assay has been optimized to be performed in a high-throughput format, making it more capable with large quantity of samples. Thus, this cell-based seeding assay could be extremely useful for detecting seedible species in the biosamples, which is shown by us to increase as the disease progressing, and thus could be used as a biomarker for HD diagnosis and clinical trials, as well as for drug discovery.

## DNAJB6: DNAJB6 of the Hsp40 family, overexpressed in ΔN17 cells by transit transfection
ΔN17 cells, overexpression by transit transfection, induced by HD CSF, FIG. 10
  HTT-ΔN17-46Q-GFP aggregation induced by HD CSF, with overexpression: dramatically reduced
ΔN17 cells, overexpression by transit transfection, induced by preformed mHTT-exon1 seeds, FIG. 10
  HTT-ΔN17-46Q-GFP aggregation induced by preformed mHTT-exon1 seeds, with overexpression: dramatically reduced

## fibrillar Aβ: fibrillar Aβ used as non-HTT seed control [reference compound]
  induction of intracellular HTT-ΔN17-46Q-GFP aggregation by extracellularly applied seeds: did not elicit the aggregation

## phosphorylated tau: phosphorylated tau used as non-HTT seed control [reference compound]
  induction of intracellular HTT-ΔN17-46Q-GFP aggregation by extracellularly applied seeds: did not elicit the aggregation
